From patent US8476064B2, “Inhibition assay method and device for detection of antibiotics” (Charm Sciences, Inc., priority 2006, dated 2013)

Assays:
B.st. spores [1] = test: Antibiotic detection test in spiked milk, Trizma/succinate culture of Example 7 (Table 5); assay type: cell-based, Bacillus (Geobacillus) Stearothermophilus; settings: for 16 hr Result / % Pos (16 hr Result): 16 hours later; for % Pos (Result) / Result: immediately after test completion
Method: A Trizma/Succinate solution was prepared by adding 2.5 grams Trizma Base and 6 grams Succinate to 100 mL of reverse osmosis/deionized water (RO/DI Water) in a 125 mL flask. 40 milligrams of BCP (see example 1 for BCP preparation) was then added to a 50 mL conical tube and 25 mL of the Trizma/Succinate solution was added to the 40 milligrams BCP and mixed.
The media was prepared by dissolving 5 grams glucose and 1 gram Mueller Hinton Broth in 100 mL RO/DI Water. 1.2 mL of a 0.01 mg/mL solution of trimethoprim in RO/DI water was added to the media. 20 mL of the BCP/Trizma/Succinate preparation was added to the media and the media was sterile filtered through a 0.45 micron filter and cooled to 4 degrees C.
0.3 grams Difco Bacto-Agar (Item #0140-01), 0.225 NaCl and 17 mL of RO/DI water was combined and mixed and heated the mixture to 95° C. The mixture was removed from the heat and allowed it to cool to 75° C. and then 6 mL media (with BCP/Tris) was added and mixed for 5 minutes. The mixture was cooled to 57° C. and 2 mL spore (concentration of 1 billion cfu/mL) was added and mixed for 5 minutes. 0.200 mL was dispensed into the bottom of each vial.
In test operation 200 microliters of various milk samples, spiked with known concentrations of antibiotics, were pipetted into vials and incubated for the prescribed time (in this test 2 hours 30 minutes) and prescribed temperature (64 degrees C.+/−2 degrees C.). Results were recorded immediately after test completion and 16 hours later. Incubation was in various Charm Inctronic I incubators. Concentrations listed are in parts per billion (ppb). 4 samples were run at each concentration except 16 negative samples were run and 2 samples each for 3 ppb pen G and amoxicillin. Abbreviations are pencillin G (PenG); sulfamethazine (SMZ); sulfadimethoxine (SDM); tylosin (TY); gentamicin (G); oxytetracycline (OT); pirlimycin (Pirl); amoxicillin (Amox); ampicillin (Amp); cloxacillin (Clox); ceftiofur sodium (Ceft); cephaprin (Ceph); tilmicosin (Til); sulfadoxine (SDN); neomycin (Neo).

B.st. spores [2] = test: Antibiotic detection test in spiked milk, borate/succinate culture of Example 6 (Table 4); assay type: cell-based, Bacillus (Geobacillus) Stearothermophilus; design: key to Color 1 / Color 2: Color result 1 and 2 is a negative result; Color result 1 and 2 is a negative result; 3 is a borderline result; 4 and 5 is a positive result; 4 and 5 is a positive result; settings: for % Pos (Color 2) / Color 2: after 16 hours at room temperature; for % Pos (Color 1) / Color 1: immediately after test completion
Method: BCP/Borate/Succinate Solution was prepared by adding 3.8 grams of Borate and 6 grams Succinate to 100 mL of reverse osmosis/deionized water (RO/DI Water) in 125 mL flask. 50 milligrams of BCP was added to a 50 mL conical tube and 5 mL of Borate/Succinate solution was added to the 50 milligrams BCP and mixed.
To prepare media 5 grams glucose and 1 gram Mueller Hinton Broth was dissolved in 100 mL RO/DI Water. 1.2 mL of a 0.01 mg/mL solution of trimethoprim in RO/DI Water was prepared and added to the media. A 20 mL of BCP/Borate/Succinate was added to the media and the media was sterile filtered through a 0.45 micron filter and then cooled to 4 degrees C.
Agar was prepared by combining 0.3 grams Difco Bacto-Agar (Item #0140-01), 0.225 NaCl and 17.485 RO/DI Water. The mixture was heated to 95° C. and then removed from the heat and allowed to cool to 75° C. Next 6 mL of media (prepared as described above with BCP/Tris) was added to the agar and mixed for 5 minutes. The mixture was cooled to 57° C. and 1 mL spore solution (concentration of 1 billion cfu/mL) was added and mixed together for 5 minutes. 0.200 mL was dispensed into the bottom of each of the vials.
In test operation 200 microliters of various milk sample, spiked with known concentrations of antibiotics, were pipetted into test vials and incubated for the prescribed time (in this test 2 hours 10 minutes) and prescribed temperature (64 degrees C.+/−2 degrees C.). Incubation was in the Charm I Inctronic incubator. Results were recorded immediately after test completion (Color 1) and after being left at room temperature for 16 hours (Color 2). Results listed are in parts per billion (ppb). 4 samples were run at each concentrations except for raw negative milk (16 samples) and 3 ppb pen G (2 samples) and amoxicillin (2 samples). Abbreviations are penicillin G (PenG); sulfamethazine (SMZ); sulfadimethoxine (SDM); tylosin (TY); gentamicin (G); oxytetracycline (OT); pirlimycin (Pirl); amoxicillin (Amox); ampicillin (Amp); cloxacillin (Clox); ceftiofur sodium (Ceft); cephaprin (Ceph); tilmicosin (Til); sulfadoxine (SDN); neomycin (Neo). Color result 1 and 2 is a negative result, 3 is a borderline result and 4 and 5 is a positive result.

Compound: Cc1cc(C)nc(NS(=O)(=O)c2ccc(N)cc2)n1 [SMZ, sulfamethazine]
- 16 hr Result (B.st. spores [1]; milk spiked at 100 ppb): Pos
- % Pos (16 hr Result) (B.st. spores [1]; milk spiked at 100 ppb): 100%
- % Pos (Result) (B.st. spores [1]; milk spiked at 100 ppb): 100%
- Result (B.st. spores [1]; milk spiked at 100 ppb): Pos
- 16 hr Result (B.st. spores [1]; milk spiked at 200 ppb): Pos
- % Pos (16 hr Result) (B.st. spores [1]; milk spiked at 200 ppb): 100%
- % Pos (Result) (B.st. spores [1]; milk spiked at 200 ppb): 100%
- Result (B.st. spores [1]; milk spiked at 200 ppb): Pos
- % Pos (Color 2) (B.st. spores [2]; milk spiked at 100 ppb): 100%
- Color 2 (B.st. spores [2]; milk spiked at 100 ppb): 5
- % Pos (Color 1) (B.st. spores [2]; milk spiked at 100 ppb): 100%
- Color 1 (B.st. spores [2]; milk spiked at 100 ppb): 5
- % Pos (Color 2) (B.st. spores [2]; milk spiked at 200 ppb): 100%
- Color 2 (B.st. spores [2]; milk spiked at 200 ppb): 4
- % Pos (Color 1) (B.st. spores [2]; milk spiked at 200 ppb): 100%
- Color 1 (B.st. spores [2]; milk spiked at 200 ppb): 5

Compound: COc1cc(NS(=O)(=O)c2ccc(N)cc2)nc(OC)n1 [SDM, sulfadimethoxine]
- 16 hr Result (B.st. spores [1]; milk spiked at 25 ppb): Pos
- % Pos (16 hr Result) (B.st. spores [1]; milk spiked at 25 ppb): 100%
- % Pos (Result) (B.st. spores [1]; milk spiked at 25 ppb): 100%
- Result (B.st. spores [1]; milk spiked at 25 ppb): Pos
- 16 hr Result (B.st. spores [1]; milk spiked at 50 ppb): Pos
- % Pos (16 hr Result) (B.st. spores [1]; milk spiked at 50 ppb): 100%
- % Pos (Result) (B.st. spores [1]; milk spiked at 50 ppb): 100%
- Result (B.st. spores [1]; milk spiked at 50 ppb): Pos
- % Pos (Color 2) (B.st. spores [2]; milk spiked at 25 ppb): 100%
- Color 2 (B.st. spores [2]; milk spiked at 25 ppb): 5
- % Pos (Color 1) (B.st. spores [2]; milk spiked at 25 ppb): 100%
- Color 1 (B.st. spores [2]; milk spiked at 25 ppb): 4
- % Pos (Color 2) (B.st. spores [2]; milk spiked at 50 ppb): 100%
- Color 2 (B.st. spores [2]; milk spiked at 50 ppb): 5
- % Pos (Color 1) (B.st. spores [2]; milk spiked at 50 ppb): 100%
- Color 1 (B.st. spores [2]; milk spiked at 50 ppb): 5

Compound: CC1(C)S[C@@H]2[C@H](NC(=O)Cc3ccccc3)C(=O)N2[C@H]1C(=O)O [PenG, penicillin G]
- 16 hr Result (B.st. spores [1]; milk spiked at 3 ppb): Pos
- % Pos (16 hr Result) (B.st. spores [1]; milk spiked at 3 ppb): 100%
- % Pos (Result) (B.st. spores [1]; milk spiked at 3 ppb): 100%
- Result (B.st. spores [1]; milk spiked at 3 ppb): Pos
- 16 hr Result (B.st. spores [1]; milk spiked at 4 ppb): Pos
- % Pos (16 hr Result) (B.st. spores [1]; milk spiked at 4 ppb): 100%
- % Pos (Result) (B.st. spores [1]; milk spiked at 4 ppb): 100%
- Result (B.st. spores [1]; milk spiked at 4 ppb): Pos
- % Pos (Color 2) (B.st. spores [2]; milk spiked at 3 ppb): 100%
- Color 2 (B.st. spores [2]; milk spiked at 3 ppb): 5
- % Pos (Color 1) (B.st. spores [2]; milk spiked at 3 ppb): 100%
- Color 1 (B.st. spores [2]; milk spiked at 3 ppb): 5
- % Pos (Color 2) (B.st. spores [2]; milk spiked at 4 ppb): 100%
- Color 2 (B.st. spores [2]; milk spiked at 4 ppb): 5
- % Pos (Color 1) (B.st. spores [2]; milk spiked at 4 ppb): 100%
- Color 1 (B.st. spores [2]; milk spiked at 4 ppb): 5

Compound: CC[C@H]1OC(=O)C[C@@H](O)[C@H](C)[C@@H](O[C@@H]2O[C@H](C)[C@@H](O[C@H]3C[C@@](C)(O)[C@@H](O)[C@H](C)O3)[C@H](N(C)C)[C@H]2O)[C@@H](CC=O)C[C@@H](C)C(=O)/C=C/C(C)=C/[C@@H]1CO[C@@H]1O[C@H](C)[C@@H](O)[C@@H](OC)[C@H]1OC [TY, tylosin]
- 16 hr Result (B.st. spores [1]; milk spiked at 40 ppb): Pos
- % Pos (16 hr Result) (B.st. spores [1]; milk spiked at 40 ppb): 100%
- % Pos (Result) (B.st. spores [1]; milk spiked at 40 ppb): 100%
- Result (B.st. spores [1]; milk spiked at 40 ppb): Pos
- 16 hr Result (B.st. spores [1]; milk spiked at 50 ppb): Pos
- % Pos (16 hr Result) (B.st. spores [1]; milk spiked at 50 ppb): 100%
- % Pos (Result) (B.st. spores [1]; milk spiked at 50 ppb): 100%
- Result (B.st. spores [1]; milk spiked at 50 ppb): Pos
- % Pos (Color 2) (B.st. spores [2]; milk spiked at 40 ppb): 100%
- Color 2 (B.st. spores [2]; milk spiked at 40 ppb): 4
- % Pos (Color 1) (B.st. spores [2]; milk spiked at 40 ppb): 100%
- Color 1 (B.st. spores [2]; milk spiked at 40 ppb): 5
- % Pos (Color 2) (B.st. spores [2]; milk spiked at 50 ppb): 100%
- Color 2 (B.st. spores [2]; milk spiked at 50 ppb): 5
- % Pos (Color 1) (B.st. spores [2]; milk spiked at 50 ppb): 100%
- Color 1 (B.st. spores [2]; milk spiked at 50 ppb): 5

Compound: gentamicin
- 16 hr Result (B.st. spores [1]; milk spiked at 300 ppb): Pos
- % Pos (16 hr Result) (B.st. spores [1]; milk spiked at 300 ppb): 100%
- % Pos (Result) (B.st. spores [1]; milk spiked at 300 ppb): 100%
- Result (B.st. spores [1]; milk spiked at 300 ppb): Pos
- 16 hr Result (B.st. spores [1]; milk spiked at 400 ppb): Pos
- % Pos (16 hr Result) (B.st. spores [1]; milk spiked at 400 ppb): 100%
- % Pos (Result) (B.st. spores [1]; milk spiked at 400 ppb): 100%
- Result (B.st. spores [1]; milk spiked at 400 ppb): Pos
- % Pos (Color 2) (B.st. spores [2]; milk spiked at 300 ppb): 100%
- Color 2 (B.st. spores [2]; milk spiked at 300 ppb): 4
- % Pos (Color 1) (B.st. spores [2]; milk spiked at 300 ppb): 100%
- Color 1 (B.st. spores [2]; milk spiked at 300 ppb): 4
- % Pos (Color 2) (B.st. spores [2]; milk spiked at 400 ppb): 100%
- Color 2 (B.st. spores [2]; milk spiked at 400 ppb): 5
- % Pos (Color 1) (B.st. spores [2]; milk spiked at 400 ppb): 100%
- Color 1 (B.st. spores [2]; milk spiked at 400 ppb): 5

Compound: CN(C)[C@@H]1C(O)=C(C(N)=O)C(=O)[C@@]2(O)C(O)=C3C(=O)c4c(O)cccc4[C@@](C)(O)[C@H]3[C@H](O)[C@@H]12 [OT, oxytetracycline]
- % Pos (16 hr Result) (B.st. spores [1]; milk spiked at 200 ppb): 0%
- % Pos (Result) (B.st. spores [1]; milk spiked at 200 ppb): 0%
- % Pos (16 hr Result) (B.st. spores [1]; milk spiked at 300 ppb): 100%
- % Pos (Result) (B.st. spores [1]; milk spiked at 300 ppb): 100%
- % Pos (Color 2) (B.st. spores [2]; milk spiked at 200 ppb): 0%
- Color 2 (B.st. spores [2]; milk spiked at 200 ppb): 2
- % Pos (Color 1) (B.st. spores [2]; milk spiked at 200 ppb): 0%
- Color 1 (B.st. spores [2]; milk spiked at 200 ppb): 2
- % Pos (Color 2) (B.st. spores [2]; milk spiked at 300 ppb): 100%
- Color 2 (B.st. spores [2]; milk spiked at 300 ppb): 4
- % Pos (Color 1) (B.st. spores [2]; milk spiked at 300 ppb): 100%
- Color 1 (B.st. spores [2]; milk spiked at 300 ppb): 5
